Source: patent US10093683B2, “Factor XIa inhibitors” (Merck Sharp & Dohme Corp., priority 2014, dated 2018)

What was measured:
human Factor XIa = human Factor XIa (Homo sapiens (Human), UniProt P03951); test: Factor XIa Assay; type: biochemical; conditions: purified human Factor XIa 40 pM, Z-Gly-Pro-Arg-AFC 100 μM, pH 7.4; read-out: FXIa Ki
Procedure, shortened: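 Ki derived from the dependence of Vo/Vi on inhibitor concentration under a competitive-inhibition model, after pre-equilibration of enzyme and inhibitor. Reaction: 40 pM human FXIa, 100 μM Z-Gly-Pro-Arg-AFC, HEPES 50 mM pH 7.4 with NaCl, CaCl2 and PEG 8000; run at room temperature or 37° C.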

Human plasma kallikrein = Human plasma kallikrein (Homo sapiens (Human), UniProt P03952); test: Kallikrein Assay; type: biochemical; conditions: purified Human plasma kallikrein 0.5 nM, Acetyl-K-P-R-AFC, pH 7.4; Ki from IC50 by Cheng Prusoff
Chain of Human plasma kallikrein (P03952 391-638): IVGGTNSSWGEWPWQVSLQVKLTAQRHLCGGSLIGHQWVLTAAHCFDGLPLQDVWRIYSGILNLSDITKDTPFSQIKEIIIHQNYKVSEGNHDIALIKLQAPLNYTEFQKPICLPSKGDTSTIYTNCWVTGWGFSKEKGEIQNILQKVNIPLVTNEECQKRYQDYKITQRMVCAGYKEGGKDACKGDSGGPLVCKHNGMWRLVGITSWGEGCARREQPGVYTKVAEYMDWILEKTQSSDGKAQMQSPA
Chain of Human plasma kallikrein (P03952 20-390 partner): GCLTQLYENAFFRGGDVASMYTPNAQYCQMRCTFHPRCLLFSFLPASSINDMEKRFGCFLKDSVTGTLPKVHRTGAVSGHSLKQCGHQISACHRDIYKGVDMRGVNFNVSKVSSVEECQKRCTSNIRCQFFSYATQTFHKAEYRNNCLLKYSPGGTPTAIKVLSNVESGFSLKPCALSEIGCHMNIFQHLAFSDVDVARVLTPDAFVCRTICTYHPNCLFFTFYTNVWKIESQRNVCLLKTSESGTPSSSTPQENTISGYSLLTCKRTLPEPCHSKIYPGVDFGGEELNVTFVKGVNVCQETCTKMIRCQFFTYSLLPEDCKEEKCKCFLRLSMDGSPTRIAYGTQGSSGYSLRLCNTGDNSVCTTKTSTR
Procedure, shortened: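 Purified human plasma kallikrein (0.5 nM final) with Acetyl-K-P-R-AFC substrate ([…]) in 50 mM HEPES pH 7.4, 150 mM NaCl, 5 mM CaCl2, 0.1% PEG 8000, after enzyme-inhibitor equilibration. Fluorescence (405 ex/510 em) under linear conditions; IC50 from four-parameter fit, converted to Ki by Cheng-Prusoff.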

Chain of human Factor XIa (P03951 388-625): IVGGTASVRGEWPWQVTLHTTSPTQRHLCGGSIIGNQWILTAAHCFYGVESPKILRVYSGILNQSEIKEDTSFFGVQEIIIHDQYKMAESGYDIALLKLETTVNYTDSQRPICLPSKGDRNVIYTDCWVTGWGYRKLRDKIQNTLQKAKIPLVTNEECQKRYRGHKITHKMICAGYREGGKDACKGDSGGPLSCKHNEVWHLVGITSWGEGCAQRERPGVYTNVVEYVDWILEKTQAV
Chain of human Factor XIa (P03951 19-387 partner): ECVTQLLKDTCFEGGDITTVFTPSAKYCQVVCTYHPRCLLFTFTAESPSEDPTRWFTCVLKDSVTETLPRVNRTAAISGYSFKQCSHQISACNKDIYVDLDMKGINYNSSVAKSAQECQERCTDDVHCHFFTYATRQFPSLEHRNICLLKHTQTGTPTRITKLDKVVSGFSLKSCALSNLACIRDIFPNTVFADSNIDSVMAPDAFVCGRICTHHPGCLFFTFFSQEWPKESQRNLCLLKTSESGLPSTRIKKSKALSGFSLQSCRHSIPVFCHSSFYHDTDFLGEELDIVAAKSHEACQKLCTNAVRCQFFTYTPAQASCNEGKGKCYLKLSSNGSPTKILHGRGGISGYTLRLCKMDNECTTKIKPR

| Compound | Ki (human Factor XIa) | Ki (Human plasma kallikrein) |
| --- | --- | --- |
| COC(=O)Nc1ccc(C(=O)N[C@@H](Cc2ccc(F)cn2)C(=O)N2CCC[C@@]3(C2)OC(=O)Nc2ccc(Cl)c(F)c23)cc1 [Example 74, methyl (4-(((S)-1-((R)-6-chloro-5-fluoro-2-oxo-1,2-dihydrospiro[benzo[d][1,3]oxazine-4,3′-piperidin]-1′-yl)-3-(5-fluoropyridin-2-yl)-1-oxopropan-2-yl)carbamoyl)phenyl)carbamate] | 2.82 nM | 2.53 nM |
| COC(=O)Nc1ccc(C(=O)N[C@@H](Cc2ccc(-c3cn[nH]c3)cc2)C(=O)N2CC[C@@]3(C2)OC(=O)Nc2ccc(Cl)cc23)cc1 [Example 78, methyl (4-(((S)-3-(4-(1H-pyrazol-4-yl)phenyl)-1-((R)-6-chloro-2-oxo-1,2-dihydrospiro[benzo[d][1,3]oxazine-4,3′-pyrrolidin]-1′-yl)-1-oxopropan-2-yl)carbamoyl)phenyl)carbamate] | 2.37 nM | 24.5 nM |
| COC(=O)Nc1ccc(C(=O)N[C@@H](Cc2ccc(-c3cc[nH]c3)cc2)C(=O)N2CC[C@@]3(C2)OC(=O)Nc2ccc(Cl)cc23)cc1 [Example 79, methyl (4-(((S)-3-(4-(1H-pyrrol-3-yl)phenyl)-1-((R)-6-chloro-2-oxo-1,2-dihydrospiro[benzo[d][1,3]oxazine-4,3′-pyrrolidin]-1′-yl)-1-oxopropan-2-yl)carbamoyl)phenyl)carbamate] | 9.98 nM | 14.5 nM |
| COC(=O)Nc1ccc(C(=O)N[C@@H](Cc2ccc(-c3cnn(C)c3)cc2)C(=O)N2CC[C@@]3(C2)OC(=O)Nc2ccc(Cl)cc23)cc1 [Example 83, methyl (4-(((S)-1-((R)-6-chloro-2-oxo-1,2-dihydrospiro[benzo[d][1,3]oxazine-4,3′-pyrrolidin]-1′-yl)-3-(4-(1-methyl-1H-pyrazol-4-yl)phenyl)-1-oxopropan-2-yl)carbamoyl)phenyl)carbamate] | 2.65 nM | 31.1 nM |
| COC(=O)Nc1ccc(C(=O)N[C@@H](Cc2cc(C3CC3)no2)C(=O)N2CC[C@@]3(C2)OC(=O)Nc2ccc(Cl)cc23)cc1 [Example 84, methyl (4-(((S)-1-((R)-6-chloro-2-oxo-1,2-dihydrospiro[benzo[d][1,3]oxazine-4,3′-pyrrolidin]-1′-yl)-3-(3-cyclopropylisoxazol-5-yl)-1-oxopropan-2-yl)carbamoyl)phenyl)carbamate] | 28.1 nM | 28.4 nM |
| COC(=O)Nc1ccc(C(=O)N[C@@H](CC(=O)N2CCCCC2)C(=O)N2CC[C@@]3(C2)OC(=O)Nc2ccc(Cl)cc23)cc1 [Example 87, methyl (4-(((S)-1-((R)-6-chloro-2-oxo-1,2-dihydrospiro[benzo[d][1,3]oxazine-4,3′-pyrrolidin]-1′-yl)-1,4-dioxo-4-(piperidin-1-yl)butan-2-yl)carbamoyl)phenyl)carbamate] | 3.65 nM | 11 nM |
| COC(=O)Nc1ccc(C(=O)N[C@@H](CC(=O)N2CC3CCCC32)C(=O)N2CCC[C@@]3(C2)OC(=O)Nc2ccc(Cl)cc23)cc1 (stereo partly drawn) [Example 94, methyl (4-(((2S)-4-(6-azabicyclo[3.2.0]heptan-6-yl)-1-((R)-6-chloro-2-oxo-1,2-dihydrospiro[benzo[d][1,3]oxazine-4,3′-piperidin]-1′-yl)-1,4-dioxobutan-2-yl)carbamoyl)phenyl)carbamate] | 5.47 nM | 1.42 nM |
| COC(=O)Nc1ccc(C(=O)N[C@@H](CC(=O)N2CC[C@H]2CO)C(=O)N2CCC[C@@]3(C2)OC(=O)Nc2ccc(Cl)cc23)cc1 [Example 95, methyl (4-(((S)-1-((R)-6-chloro-2-oxo-1,2-dihydrospiro[benzo[d][1,3]oxazine-4,3′-piperidin]-1′-yl)-4-((S)-2-(hydroxymethyl)azetidin-1-yl)-1,4-dioxobutan-2-yl)carbamoyl)phenyl)carbamate] | 3.59 nM | 1.81 nM |
| COC(=O)Nc1ccc(C(=O)N[C@@H](CC(=O)N2CC(OC)C2)C(=O)N2CCC[C@@]3(C2)OC(=O)Nc2ccc(Cl)cc23)cc1 [Example 97, methyl (4-(((S)-1-((R)-6-chloro-2-oxo-1,2-dihydrospiro[benzo[d][1,3]oxazine-4,3′-piperidin]-1′-yl)-4-(3-methoxyazetidin-1-yl)-1,4-dioxobutan-2-yl)carbamoyl)phenyl)carbamate] | 51.1 nM | 15.3 nM |
| COC(=O)Nc1ccc(C(=O)N[C@@H](CC(=O)NCc2ccnn2C)C(=O)N2CCC[C@@]3(C2)OC(=O)Nc2ccc(Cl)cc23)cc1 [Example 98, methyl (4-(((S)-1-((R)-6-chloro-2-oxo-1,2-dihydrospiro[benzo[d][1,3]oxazine-4,3′-piperidin]-1′-yl)-4-(((1-methyl-1H-pyrazol-5-yl)methyl)amino)-1,4-dioxobutan-2-yl)carbamoyl)phenyl)carbamate] | 38.3 nM | 25.4 nM |

Next, values leading:

| Ki (human Factor XIa) | Ki (Human plasma kallikrein) | Compound |
| --- | --- | --- |
| 1.9 nM | 1.56 nM | COC(=O)Nc1ccc(C(=O)N[C@@H](Cc2ccc(OC)cn2)C(=O)N2CCC[C@@]3(C2)OC(=O)Nc2ccc(Cl)c(F)c23)cc1 [Example 75, methyl (4-(((S)-1-((R)-6-chloro-5-fluoro-2-oxo-1,2-dihydrospiro[benzo[d][1,3]oxazine-4,3′-piperidin]-1′-yl)-3-(5-methoxypyridin-2-yl)-1-oxopropan-2-yl)carbamoyl)phenyl)carbamate] |
| 1.39 nM | 1.2 nM | COC(=O)Nc1ccc(C(=O)N[C@@H](Cc2ccncc2F)C(=O)N2CCC[C@@]3(C2)OC(=O)Nc2ccc(Cl)c(F)c23)cc1 [Example 76, methyl (4-(((S)-1-((R)-6-chloro-5-fluoro-2-oxo-1,2-dihydrospiro[benzo[d][1,3]oxazine-4,3′-piperidin]-1′-yl)-3-(3-fluoropyridin-4-yl)-1-oxopropan-2-yl)carbamoyl)phenyl)carbamate] |
| 3.48 nM | 32.6 nM | COC(=O)Nc1ccc(C(=O)N[C@@H](Cc2ccc(-c3cc[nH]n3)cc2)C(=O)N2CC[C@@]3(C2)OC(=O)Nc2ccc(Cl)cc23)cc1 [Example 77, methyl (4-(((S)-3-(4-(1H-pyrazol-3-yl)phenyl)-1-((R)-6-chloro-2-oxo-1,2-dihydrospiro[benzo[d][1,3]oxazine-4,3′-pyrrolidin]-1′-yl)-1-oxopropan-2-yl)carbamoyl)phenyl)carbamate] |
| 29.9 nM | 7.98 nM | COC(=O)Nc1ccc(C(=O)N[C@@H](Cc2ccc(-c3cc(C(F)(F)F)nn3C)cc2)C(=O)N2CC[C@@]3(C2)OC(=O)Nc2ccc(Cl)cc23)cc1 [Example 81, methyl (4-(((S)-1-((R)-6-chloro-2-oxo-1,2-dihydrospiro[benzo[d][1,3]oxazine-4,3′-pyrrolidin]-1′-yl)-3-(4-(1-methyl-3-(trifluoromethyl)-1H-pyrazol-5-yl)phenyl)-1-oxopropan-2-yl)carbamoyl)phenyl)carbamate] |
| 7.12 nM | 11.7 nM | COC(=O)Nc1ccc(C(=O)N[C@@H](Cc2ccc(-c3conc3C)cc2)C(=O)N2CC[C@@]3(C2)OC(=O)Nc2ccc(Cl)cc23)cc1 [Example 82, methyl (4-(((S)-1-((R)-6-chloro-2-oxo-1,2-dihydrospiro[benzo[d][1,3]oxazine-4,3′-pyrrolidin]-1′-yl)-3-(4-(3-methylisoxazol-4-yl)phenyl)-1-oxopropan-2-yl)carbamoyl)phenyl)carbamate] |
